# Data from patent US20050282793A1, “Steroid prodrugs with androgenic action” (priority 2004, published 2005).
# Like-named read-outs stand apart in the source and are kept apart here.
# Legend:
# Human Carboanhydrase I = Human Carboanhydrase I (Homo sapiens, UniProt P00915); assay: Carboanhydrase I inhibition (CO2 hydration); format: biochemical
# Procedure: Carboanhydrases catalyze the CO2 hydration.
# Test preparation: A constant CO2 stream is directed by a buffer that was mixed with carboanhydrase I. The time that is required to reduce the pH within defined limits is a measuring parameter. This parameter reflects the formation of H2CO3 in the medium. IC50 inhibiting values are determined by test substances being pipetted into the test preparation.
# erythrocytes = assay: Binding to erythrocytes: displacement of estradiol-3-sulfamate from the erythrocyte bond (RBA); set-up: species or system human; details: for RBA in Erythrocytes: human blood, displacement of 14C-labeled estradiol sulfamate, estradiol-3-sulfamate = 100
# Procedure: The SO2—NH2 group of the compounds according to the invention can result in a concentration in erythrocytes by binding to carboanhydrases. The displacement of estradiol-3-sulfamate from the erythrocyte bond by test substances is measured. Test preparation: human blood is mixed with a mixture that consists of ^14C-labeled and unlabeled estradiol sulfamate. The erythrocytes are saturated at the selected working point. The distribution in plasma/erythrocytes is 40:60. A second blood sample is mixed with a mixture that consists of ^14C-labeled estradiol sulfamate and unlabeled test substance. The relative binding affinity is calculated from the proportion of ^14C-labeled estradiol sulfamate in plasma: higher proportion=strong displacement of ^14C-estradiol sulfamate from the erythrocytes by the test substance=high binding affinity of the test substances to the erythrocytes.
# [1] = Determination of the erythrocyte/plasma distribution ratio; format: in vitro ADME; details: freshly obtained, heparinized blood
# Procedure: Freshly obtained, heparinized blood is mixed with a defined amount of test substance. The concentration in the plasma obtained therefrom is measured. The erythrocyte/plasma distribution ratio is calculated from the measured concentration of the entire substance in plasma and the concentration that is used.
# [2] = test system: sexually immature, castrated male rats; assay: Test (I), oral treatment over 7 days, evaluation on day 8; format: in vivo, rat
# Procedure: Test (I) on Sexually Immature, Castrated Male Rats Over 8 Days
# Method: Male rats weighing about 45 g of body weight are castrated and treated orally over 7 days with MENT and with compounds 12 or 18 according to the invention. On the 8th day of the test, the animals are sacrificed, and the hormonal effects of the test substances are evaluated (growth of the accessory sex glands, reduction of gonadotropic hormones in plasma, parameters of hepatic actions: effects on HDL lipoproteins).
# [3] = test system: sexually mature, castrated male rats; assay: Test (II), oral treatment over 7 days, evaluation on day 8; format: in vivo, rat
# Procedure: Test (II) on Sexually Mature, Castrated Male Rats Over 8 Days
# (§1) • Method: Adult male rats, of about 300 g of body weight, are castrated and treated orally over 7 days with MENT and compound 12 according to the invention. On the 8th day of the test, the animals are sacrificed, and the hormonal effects of the test substances are evaluated (growth of the accessory sex glands, reduction of the gonadotropic hormones in plasma, parameters of hepatic actions: effects on HDL lipoproteins, determination of MENT in the plasma). Test (III) on Gonadally Intact Adult Sexually Mature Rats Over 6 Weeks
# [4] = test system: gonadally intact, adult, sexually mature rats; assay: Test (III), oral treatment over 6 weeks; format: in vivo, rat
# Procedure: as §1
# • Method: Adult male rats of above 300 g of body weight are treated orally over 6 weeks with MENT and compounds 12 or 5 according to the invention. At the end of the test, the animals are sacrificed, and the hormonal effects of the test substances are evaluated (weight of the testes and the accessory sex glands, reduction of the gonadotropic hormones and testosterone in the plasma during the course of the test, parameters of hepatic actions: effects on HDL lipoproteins).
# [5] = test system: accessory sex glands (prostate); assay: Hershberger Test (comparison of m- and p-substituted compound; test not specified); format: in vivo, rat; details: m-substituted compound 12 compared to p-substituted compound 11
# Human Carboanhydrase I, sequence (P00915 whole entry): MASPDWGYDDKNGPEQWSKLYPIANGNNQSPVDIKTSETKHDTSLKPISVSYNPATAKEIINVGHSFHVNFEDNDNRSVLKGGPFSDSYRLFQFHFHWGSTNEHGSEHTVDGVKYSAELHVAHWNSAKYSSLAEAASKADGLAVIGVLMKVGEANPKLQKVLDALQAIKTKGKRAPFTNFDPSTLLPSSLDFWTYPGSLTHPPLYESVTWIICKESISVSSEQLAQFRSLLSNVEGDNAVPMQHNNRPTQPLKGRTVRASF
Compound,RBA in Erythrocytes (erythrocytes),Distribution Ratio with Erythrocytes/Plasma [1],growth of the accessory sex glands [2],IC50 (Human Carboanhydrase I) [µM],also measured
"C[C@@H]1CC2=CC(=O)CC[C@@H]2[C@H]2CC[C@]3(C)[C@@H](OC(=O)c4ccc(S(N)(=O)=O)cc4)CC[C@H]3[C@@H]21 [Compound 11, 3-Oxo-7α-methylestr-4-en-17β-yl 4′-sulfamoyl benzoate]",–,–,–,–,"IC50 (Human Carboanhydrase I; human carboanhydrase I, read-out: CAI IC50): 0.2 to 0.4 µM"
"C[C@]12CC[C@H]3[C@@H](CCC4=CC(=O)CC[C@@H]43)[C@@H]1CC[C@@H]2OC(=O)c1ccc(S(N)(=O)=O)cc1 [Compound 8, 3-Oxoestr-4-en-17β-yl 4′-sulfamoyl benzoate]",24,7,–,–,–
"C[C@@H]1CC2=CC(=O)CC[C@@H]2[C@H]2CC[C@]3(C)[C@@H](OC(=O)c4cccc(S(N)(=O)=O)c4)CC[C@H]3[C@@H]21 [Compound 12, 3-Oxo-7α-methylestr-4-en-17β-yl 3′-sulfamoyl benzoate]",2.1,3,strong dose-dependent effects on the growth of the accessory sex glands,0.6,"bond strength to the erythrocytes (in words) (erythrocytes; m-substituted versus 4'-sulfamoyl benzoates): lower bond strength to the erythrocytes; levels of MENT in the plasma ([3]; after oral administration): significantly higher levels of MENT are achieved in the plasma than after the administration of MENT itself; growth of the accessory sex glands ([3]; oral, 7 days): unexpectedly strong, dose-dependent effects on the growth of the accessory sex glands; antigonadotropic effects [4]: Superior antigonadotropic effects; effects on the accessory sex glands (weights of seminal vesicles and prostates) [4]: induced in a dose-dependent way an increase of the weights of the seminal vesicles and prostates beyond the level of intact controls; activity in the Hershberger Test [5]: higher activity in the Hershberger Test compared to the p-substituted compound 11"
"C[C@]12CC[C@H]3[C@@H](CCC4=CC(=O)CC[C@@]43C)[C@@H]1CC[C@@H]2OC(=O)c1ccc(S(N)(=O)=O)cc1 [Compound 1, 3-Oxoandrost-4-en-17β-yl 4′-sulfamoyl benzoate]",48,9,–,0.37,–
"C[C@@H]1CC2=CC(=O)CC[C@@H]2[C@H]2CC[C@]3(C)[C@@H](O)CC[C@H]3[C@@H]21 [MENT, 7α-methyl-19-nortestosterone, reference compound]",–,–,only marginal effects,–,"reduction of HDL [2]: even more active than the substances according to the invention; growth of the accessory sex glands ([3]; oral, 7 days): only marginal effects; reduction of HDL ([3]; oral, 7 days): even more active than the substances according to the invention; effects on the accessory sex glands (weights of seminal vesicles and prostates) [4]: A corresponding effect even in the case of extremely high dosage did not occur; reduction of HDL [4]: even more effective than the substances according to the invention"
"C[C@]12CC[C@@H]3c4ccc(OS(N)(=O)=O)cc4CC[C@H]3[C@@H]1CC[C@@H]2O [Estradiol-3-sulfamate, reference compound]",100,48,–,–,–
"COc1ccc(S(N)(=O)=O)cc1C(=O)O[C@H]1CC[C@H]2[C@@H]3CCC4=CC(=O)CC[C@]4(C)[C@H]3CC[C@]12C [Compound 4, 3-Oxoandrost-4-en-17β-yl 2′-methoxy-5′-sulfamoyl benzoate]",0.8,2,–,–,–
"C[C@]12CC[C@H]3[C@@H](CCC4=CC(=O)CC[C@@]43C)[C@@H]1CC[C@@H]2OC(=O)CCc1ccc(S(N)(=O)=O)cc1 [Compound 14, 3-Oxoandrost-4-en-17β-yl 4′-sulfamoylphenylpropionate]",3.4,4,–,–,–
"C[C@]12CC[C@H]3[C@@H](CCC4=CC(=O)CC[C@@]43C)[C@@H]1CC[C@@H]2OC(=O)c1cc(S(N)(=O)=O)ccc1O [Compound 18, 3-Oxoandrost-4-en-17β-yl 2′-hydroxy-5′-sulfamoyl Benzoate]",1.4,2,strong dose-dependent effects on the growth of the accessory sex glands,–,–
"C[C@]12CC[C@H]3[C@@H](CCC4=CC(=O)CC[C@@]43C)[C@@H]1CC[C@@H]2OC(=O)c1cccc(S(N)(=O)=O)c1 [Compound 5, 3-Oxoandrost-4-en-17β-yl 3′-sulfamoyl benzoate]",1.3,2,–,0.88,changes in hepatic parameters [4]: especially small changes in hepatic parameters
